In PubChem BioAssay (NCI):
Values joined by “and” are separate entries in the source; they are usually repeats but may differ in a detail not shown here. Equal entries are not always repeated.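 A five-concentration, 48-hour dose response in 96-well plates underlies each endpoint, interpolated linearly between surrounding concentrations. GI50 is the concentration that inhibits growth by half. Definition used: TGI = concentration required for complete inhibition of growth.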

Legend:
Assay in all cases: DTP human tumour cell line panel, 48 h
786-0 renal = system: 786-0 renal
A549 NSCLC = system: A549 NSCLC
ACHN renal = system: ACHN renal
CAKI-1 renal = system: CAKI-1 renal
CCRF-CEM leukemia = system: CCRF-CEM leukemia
COLO 205 colon = system: COLO 205 colon
DU-145 prostate = system: DU-145 prostate
EKVX NSCLC = system: EKVX NSCLC
HCC-2998 colon = system: HCC-2998 colon
HCT-116 colon = system: HCT-116 colon
HCT-15 colon = system: HCT-15 colon
HL-60(TB) leukemia = system: HL-60(TB) leukemia
HOP-62 NSCLC = system: HOP-62 NSCLC
HOP-92 NSCLC = system: HOP-92 NSCLC
HS 578T breast = system: HS 578T breast
HT29 colon = system: HT29 colon
IGROV1 ovarian = system: IGROV1 ovarian
K-562 leukemia = system: K-562 leukemia
LOX IMVI melanoma = system: LOX IMVI melanoma
M14 melanoma = system: M14 melanoma
MDA-MB-231 breast = system: MDA-MB-231 breast
NCI-H23 lung = system: NCI-H23 lung
NCI-H460 lung = system: NCI-H460 lung
NCI-H522 lung = system: NCI-H522 lung
NCI/ADR-RES ovarian = system: NCI/ADR-RES ovarian
OVCAR-3 ovarian = system: OVCAR-3 ovarian
OVCAR-4 ovarian = system: OVCAR-4 ovarian
OVCAR-5 ovarian = system: OVCAR-5 ovarian
OVCAR-8 ovarian = system: OVCAR-8 ovarian
PC-3 prostate = system: PC-3 prostate
RXF 393 renal = system: RXF 393 renal
SF-268 CNS = system: SF-268 CNS
SF-295 CNS = system: SF-295 CNS
SF-539 CNS = system: SF-539 CNS
SK-MEL-2 melanoma = system: SK-MEL-2 melanoma
SK-MEL-28 melanoma = system: SK-MEL-28 melanoma
SK-OV-3 ovarian = system: SK-OV-3 ovarian
SN12C renal = system: SN12C renal
SNB-19 CNS = system: SNB-19 CNS
SNB-75 CNS = system: SNB-75 CNS
SW-620 colon = system: SW-620 colon
T-47D breast = system: T-47D breast
TK-10 renal = system: TK-10 renal
U251 CNS = system: U251 CNS
UACC-257 melanoma = system: UACC-257 melanoma
UACC-62 melanoma = system: UACC-62 melanoma
UO-31 renal = system: UO-31 renal

`CCCCCCCCCCCCCCCC[n+]1ccccc1` was tested, and the GI50 (786-0 renal) was 548 nM, the TGI (786-0 renal) was 1910 nM and the GI50 (A549 NSCLC) was 468 nM and 1210 nM. For the same compound, the TGI (A549 NSCLC) was 1860 nM and 2950 nM, the GI50 (ACHN renal) was 733 nM and 909 nM and the TGI (ACHN renal) was 2160 nM and 4490 nM. The GI50 (CAKI-1 renal) was 616 nM and 1130 nM, the TGI (CAKI-1 renal) was 3380 nM and 10200 nM and the GI50 (CCRF-CEM leukemia) was 281 nM. For the same compound, the TGI (CCRF-CEM leukemia) was 1330 nM, the GI50 (COLO 205 colon) was 255 nM and 495 nM and the TGI (COLO 205 colon) was 702 nM and 1850 nM. For the same compound, the GI50 (DU-145 prostate) was 717 nM and 938 nM, the TGI (DU-145 prostate) was 1990 nM and 2310 nM and the GI50 (EKVX NSCLC) was 453 nM. For the same compound, the TGI (EKVX NSCLC) was 2090 nM, the GI50 (HCC-2998 colon) was 339 nM and 363 nM and the TGI (HCC-2998 colon) was 1430 nM and 1680 nM. For the same compound, the GI50 (HCT-116 colon) was 321 nM, the TGI (HCT-116 colon) was 1310 nM and the GI50 (HCT-15 colon) was 1100 nM and 1090 nM. The TGI (HCT-15 colon) was 2640 nM and 3610 nM, the GI50 (HL-60(TB) leukemia) was 326 nM and the TGI (HL-60(TB) leukemia) was 1210 nM. The GI50 (HOP-62 NSCLC) was 1050 nM and 482 nM, the TGI (HOP-62 NSCLC) was 2350 nM and 1900 nM and the GI50 (HOP-92 NSCLC) was 210 nM and 335 nM. For the same compound, the TGI (HOP-92 NSCLC) was 753 nM and 1400 nM, the GI50 (HS 578T breast) was 1460 nM and 1670 nM and the TGI (HS 578T breast) was 4640 nM and 4840 nM. For the same compound, the GI50 (HT29 colon) was 199 nM and 250 nM, the TGI (HT29 colon) was 765 nM and 1260 nM and the GI50 (IGROV1 ovarian) was 384 nM. For the same compound, the TGI (IGROV1 ovarian) was 1900 nM, the GI50 (K-562 leukemia) was 278 nM and the TGI (K-562 leukemia) was 1640 nM. For the same compound, the GI50 (LOX IMVI melanoma) was 242 nM, the TGI (LOX IMVI melanoma) was 1090 nM and the GI50 (M14 melanoma) was 280 nM. For the same compound, the TGI (M14 melanoma) was 1040 nM, the GI50 (MDA-MB-231 breast) was 440 nM and 805 nM and the TGI (MDA-MB-231 breast) was 1740 nM and 2700 nM. For the same compound, the GI50 (NCI-H23 lung) was 295 nM, the TGI (NCI-H23 lung) was 1430 nM and the GI50 (NCI-H460 lung) was 388 nM and 553 nM. For the same compound, the TGI (NCI-H460 lung) was 1500 nM and 1940 nM, the GI50 (NCI-H522 lung) was 226 nM and the TGI (NCI-H522 lung) was 947 nM. The GI50 (NCI/ADR-RES ovarian) was 2560 nM and 4380 nM, the TGI (NCI/ADR-RES ovarian) was 15100 nM and 27000 nM and the GI50 (OVCAR-3 ovarian) was 366 nM. The TGI (OVCAR-3 ovarian) was 1500 nM, the GI50 (OVCAR-4 ovarian) was 570 nM and the TGI (OVCAR-4 ovarian) was 3290 nM. The GI50 (OVCAR-5 ovarian) was 494 nM and 842 nM, the TGI (OVCAR-5 ovarian) was 1860 nM and 2930 nM and the GI50 (OVCAR-8 ovarian) was 331 nM and 704 nM. For the same compound, the TGI (OVCAR-8 ovarian) was 1280 nM and 3070 nM, the GI50 (PC-3 prostate) was 243 nM and 244 nM and the TGI (PC-3 prostate) was 846 nM and 692 nM. For the same compound, the GI50 (RXF 393 renal) was 224 nM, the TGI (RXF 393 renal) was 688 nM and the GI50 (SF-268 CNS) was 452 nM and 861 nM. For the same compound, the TGI (SF-268 CNS) was 1710 nM and 2570 nM, the GI50 (SF-295 CNS) was 311 nM and the TGI (SF-295 CNS) was 1420 nM. For the same compound, the GI50 (SF-539 CNS) was 950 nM, the TGI (SF-539 CNS) was 2350 nM and the GI50 (SK-MEL-2 melanoma) was 468 nM. For the same compound, the TGI (SK-MEL-2 melanoma) was 1760 nM, the GI50 (SK-MEL-28 melanoma) was 1250 nM and the TGI (SK-MEL-28 melanoma) was 2560 nM. For the same compound, the GI50 (SK-OV-3 ovarian) was 1030 nM and 692 nM, the TGI (SK-OV-3 ovarian) was 2500 nM and 2720 nM and the GI50 (SN12C renal) was 563 nM. It also gave a TGI (SN12C renal) of 1900 nM, a GI50 (SNB-19 CNS) of 559 nM and a TGI (SNB-19 CNS) of 1900 nM. The GI50 (SNB-75 CNS) was 528 nM and 609 nM, the TGI (SNB-75 CNS) was 1720 nM and 2780 nM and the GI50 (SW-620 colon) was 391 nM and 488 nM. The TGI (SW-620 colon) was 1570 nM and 1940 nM, the GI50 (T-47D breast) was 500 nM and 445 nM and the TGI (T-47D breast) was 3420 nM and 3910 nM. For the same compound, the GI50 (TK-10 renal) was 207 nM and 432 nM, the TGI (TK-10 renal) was 518 nM and 1660 nM and the GI50 (U251 CNS) was 326 nM and 535 nM. For the same compound, the TGI (U251 CNS) was 1360 nM and 1920 nM, the GI50 (UACC-257 melanoma) was 534 nM and 1560 nM and the TGI (UACC-257 melanoma) was 1950 nM and 4670 nM. The GI50 (UACC-62 melanoma) was 565 nM, the TGI (UACC-62 melanoma) was 2150 nM and the GI50 (UO-31 renal) was 795 nM and 1160 nM. For the same compound, the TGI (UO-31 renal) was 2330 nM and 2850 nM.
